Source: ChEMBL document CHEMBL1123410, “Selective thromboxane synthetase inhibitors. 2. 3-(1H-imidazol-1-ylmethyl)-2-methyl-1H-indole-1-propanoic acid and analogues” (J Med Chem, 1986)

Key:
Thromboxane-A synthase = target: T1, Thromboxane-A synthase (Homo sapiens, UniProt P24557); experiment: Inhibition of TXA2 synthetase from human platelets
T1 sequence (P24557 whole entry): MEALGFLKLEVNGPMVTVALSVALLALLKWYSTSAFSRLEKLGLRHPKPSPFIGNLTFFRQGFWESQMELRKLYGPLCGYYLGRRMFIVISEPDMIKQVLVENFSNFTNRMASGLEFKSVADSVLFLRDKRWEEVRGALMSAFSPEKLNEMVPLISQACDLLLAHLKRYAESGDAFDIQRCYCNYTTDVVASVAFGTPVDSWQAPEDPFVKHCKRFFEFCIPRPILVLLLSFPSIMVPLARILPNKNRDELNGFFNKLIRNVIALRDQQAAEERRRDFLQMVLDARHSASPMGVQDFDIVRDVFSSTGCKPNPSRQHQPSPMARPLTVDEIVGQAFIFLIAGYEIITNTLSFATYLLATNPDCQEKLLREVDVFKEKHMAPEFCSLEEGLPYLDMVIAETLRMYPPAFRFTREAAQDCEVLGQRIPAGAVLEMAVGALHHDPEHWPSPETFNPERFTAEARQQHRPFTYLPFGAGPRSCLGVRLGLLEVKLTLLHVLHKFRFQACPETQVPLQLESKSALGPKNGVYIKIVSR

[1] = target: T2, Cytochrome P450 11B1, mitochondrial (Rattus norvegicus, UniProt P15393); experiment: Inhibition of 11 beta-hydroxylase from rat adrenal gland; type: tissue-based
T2 sequence (P15393 whole entry): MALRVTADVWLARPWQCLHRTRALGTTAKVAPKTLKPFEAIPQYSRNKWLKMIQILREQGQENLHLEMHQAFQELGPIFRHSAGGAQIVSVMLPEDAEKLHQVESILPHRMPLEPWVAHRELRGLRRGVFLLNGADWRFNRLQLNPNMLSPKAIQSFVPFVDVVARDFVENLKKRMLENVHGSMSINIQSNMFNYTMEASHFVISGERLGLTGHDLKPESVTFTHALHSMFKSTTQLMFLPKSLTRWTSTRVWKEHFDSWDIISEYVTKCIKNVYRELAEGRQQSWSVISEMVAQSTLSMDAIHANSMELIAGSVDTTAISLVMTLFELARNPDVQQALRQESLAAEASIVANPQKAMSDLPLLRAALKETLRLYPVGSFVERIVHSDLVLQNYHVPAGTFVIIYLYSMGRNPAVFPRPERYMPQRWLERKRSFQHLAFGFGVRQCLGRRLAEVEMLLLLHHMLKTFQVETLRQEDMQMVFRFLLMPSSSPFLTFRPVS

[2] = target: T3, Prostaglandin G/H synthase (cyclooxygenase) (Ovis aries, UniProt P05979+P79208); experiment: Inhibition of Prostaglandin G/H synthase from ram seminal vesicle microsomes
T3 sequence (P05979 whole entry): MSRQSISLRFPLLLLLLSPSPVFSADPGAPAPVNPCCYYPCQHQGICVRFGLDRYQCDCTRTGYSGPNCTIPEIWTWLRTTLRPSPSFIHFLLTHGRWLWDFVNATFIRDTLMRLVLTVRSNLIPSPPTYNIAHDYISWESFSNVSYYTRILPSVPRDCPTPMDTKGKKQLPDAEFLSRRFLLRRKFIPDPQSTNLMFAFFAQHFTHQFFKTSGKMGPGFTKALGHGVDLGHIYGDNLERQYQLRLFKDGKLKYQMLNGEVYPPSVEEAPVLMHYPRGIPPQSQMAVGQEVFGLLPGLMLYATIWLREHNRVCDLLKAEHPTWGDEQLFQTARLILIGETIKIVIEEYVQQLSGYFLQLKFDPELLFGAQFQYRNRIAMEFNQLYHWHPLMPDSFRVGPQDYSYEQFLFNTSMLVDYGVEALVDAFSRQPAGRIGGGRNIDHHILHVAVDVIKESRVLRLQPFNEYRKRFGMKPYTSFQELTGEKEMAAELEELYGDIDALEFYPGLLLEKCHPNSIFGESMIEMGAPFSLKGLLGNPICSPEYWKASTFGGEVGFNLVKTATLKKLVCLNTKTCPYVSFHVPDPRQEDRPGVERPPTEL
T3 sequence (P79208 whole entry): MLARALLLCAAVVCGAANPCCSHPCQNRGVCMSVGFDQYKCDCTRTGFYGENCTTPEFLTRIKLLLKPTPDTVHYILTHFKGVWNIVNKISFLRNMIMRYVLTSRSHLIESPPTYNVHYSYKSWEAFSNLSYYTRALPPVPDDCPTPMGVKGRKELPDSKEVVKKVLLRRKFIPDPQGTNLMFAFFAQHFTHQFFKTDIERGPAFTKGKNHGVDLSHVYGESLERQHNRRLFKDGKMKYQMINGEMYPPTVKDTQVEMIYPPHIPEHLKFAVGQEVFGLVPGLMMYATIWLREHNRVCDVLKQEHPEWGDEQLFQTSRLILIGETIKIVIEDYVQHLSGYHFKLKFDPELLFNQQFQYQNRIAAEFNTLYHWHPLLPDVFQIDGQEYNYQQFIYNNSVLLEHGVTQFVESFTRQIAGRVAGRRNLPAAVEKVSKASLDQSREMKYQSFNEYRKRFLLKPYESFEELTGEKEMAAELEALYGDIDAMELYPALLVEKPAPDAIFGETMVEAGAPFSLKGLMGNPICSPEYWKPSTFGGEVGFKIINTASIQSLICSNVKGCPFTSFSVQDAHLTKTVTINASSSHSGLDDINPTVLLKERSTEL

| IC50 (Thromboxane-A synthase) | IC50 [1] | IC50 [2] | SMILES |
| --- | --- | --- | --- |
| 8.2 nM | > 10000 nM | – | CC(C)c1c(Cn2ccnc2)c2ccccc2n1CCC(=O)O |
| 4.9 nM | – | – | O=C(O)CCn1c(C2CC2)c(Cn2ccnc2)c2ccccc21 |
| 4600 nM | – | – | FC(F)(F)c1ccc2c(Cn3ccnc3)c[nH]c2c1 |
| 70 nM | – | – | Cc1c(Cn2ccnc2)c2ccccc2n1/C=C/C(=O)O |
| 8.4 nM | 10000 nM | > 0.0001 M | CCn1cc(Cn2ccnc2)c2ccccc21 |
| 25 nM | 10000 nM | > 0.001 M | c1ccc2c(Cn3ccnc3)c[nH]c2c1 |
| 10 nM | – | – | O=C(O)CCn1cc(Cn2ccnc2)c2ccc(C(F)(F)F)cc21 |
| 12 nM | – | – | O=C(O)CCn1cc(Cn2ccnc2)c2cc(Br)ccc21 |
| 3000 nM | – | – | Clc1ccc2[nH]cc(Cn3ccnc3)c2c1 |
| 82 nM | – | – | CN(C)c1ccc2c(c1)c(Cn1ccnc1)cn2CCC(=O)O |
| 30 nM | – | > 0.0001 M | O=C(O)Cn1cc(Cn2ccnc2)c2ccccc21 |
| 19 nM | > 10000 nM | > 0.0001 M | O=C(O)CCn1cc(Cn2ccnc2)c2ccccc21 |
| – | – | > 0.0001 M | CC(C)c1[nH]c2ccccc2c1Cn1ccnc1 |
| 42 nM | – | – | Cc1ccc2c(c1)c(Cn1ccnc1)cn2CCC(=O)O |
| 21 nM | – | – | O=C(O)CCn1cc(Cn2ccnc2)c2cc(Cl)ccc21 |
| 43 nM | – | – | COc1ccc2c(c1)c(Cn1ccnc1)cn2CCC(=O)O |
| 28 nM | > 100000 nM | > 0.0001 M | Cc1c(Cn2ccnc2)c2ccccc2n1CCC(=O)O [DAZMEGREL] |
| – | > 100000 nM | – | O=C(O)c1ccc(OCCn2ccnc2)cc1 [DAZOXIBEN] |
